System: Bastardhunden
Experiment: Haemodynamic study of antianginal and antihypertensive effect in anaesthetised mongrel dogs
Assay type: in vivo
Conditions: change from steady state
Procedure: Die Untersuchungen über die antianginöse und antihypertensive Wirkung der Verbindungen der Formel I wurden an Bastardhunden beiderlei Geschlechts in Pentobarbital-Narkose (30 bis 40 mg/kg i.v.) oder in Urethan-Chloralose-Narkose (3 ml/kg Urethan-Chloralose-Gemisch i.v. = 20 mg/kg Chloralose und 250 mg/kg Urethan) durchgeführt. Die Beatmung der Tiere erfolgte mit einem Bird-Mark-7-Respi- rator. […] Während des gesamten Versuchs erhielten die Tiere mit Pentobarbital-Narkose eine Dauerinfusion von Pentobarbital i.v. = 4 mg/kg/6ml/h, um eine konstante Narkosetiefe zu gewährleisten; die Tiere mit Urethan-Chloralose-Narkose erhielten keine Dauerinfusion. Die Infusion wurde durch die Vena cephalica gegeben. Nach der Präparation des Versuchstieres wurde ca. 1 Stunde gewartet, bis sich alle haemodynamischen Parameter eingestellt hatten (steady state). Danach wurde mit dem eigentlichen Versuch begonnen.
Der systolische und diastolische Blutdruck wurde peripher in der Arteria femoralis über einen Statham-Druckaufnehmer gemessen. Ein über die Arteria carotis in den linken Ventrikel geschobener Millar-Tip-Katheter lieferte das Signal für den LVEDP(linksvcntrikulärer enddiastolischer Druck) und die Herzfrequenz. Mit einem zweiten, über die Vena ju-fularis eingeschobenen Tip-Katheter wurde der mittlere Blutdruck in der Arteria pulmonalis erfaßt. Die erhaltenen Ergebnisse sind in der folgenden Tabelle angegeben.

Structure (SMILES): CNC(=O)c1c(C)no[n+]1[O-] [A]
- BDm Δ (mittlerer peripherer Blutdruck) (Dosis 0,05 mg/kg i.v.): -30 mmHg
- LVEDP Δ (linksventrikulärer enddiastolischer Druck) (Dosis 0,05 mg/kg i.v.): -3 mm/Hg
- PAP Δ (mittlerer Pulmonalarteriendruck) (Dosis 0,05 mg/kg i.v.): -2 mmHg

Structure (SMILES): COCCNC(=O)c1no[n+]([O-])c1C [B]
- BDm Δ (mittlerer peripherer Blutdruck) (Dosis 0,1 mg/kg i.v.): -25 mmHg
- LVEDP Δ (linksventrikulärer enddiastolischer Druck) (Dosis 0,1 mg/kg i.v.): -2,5 mm/Hg
- PAP Δ (mittlerer Pulmonalarteriendruck) (Dosis 0,1 mg/kg i.v.): -1 mmHg

Structure (SMILES): Cc1c(C(=O)NCc2cccnc2)no[n+]1[O-] [C]
- BDm Δ (mittlerer peripherer Blutdruck) (Dosis 0,05 mg/kg i.v.): -35 mmHg
- LVEDP Δ (linksventrikulärer enddiastolischer Druck) (Dosis 0,05 mg/kg i.v.): -2 mm/Hg
- PAP Δ (mittlerer Pulmonalarteriendruck) (Dosis 0,05 mg/kg i.v.): -1 mmHg

Reference: patent publication EP0054873A1, “3,4-Di-substituted 1,2,5-oxadiazole-2 oxides, method for their preparation and pharmaceutical compositions containing them” (CASSELLA Aktiengesellschaft, priority 1980, dated 1982)
